Pest or weed control data for six compounds are collected here from patent US20230278972A1, “SUBSTITUTED HALOALKYL SULFONANILIDE HERBICIDES” (FMC Corporation, priority 2020, published 2023).

Common to all, as to assay type: in vivo
For assay [1], the system named is barnyardgrass (Echinochloa crus-galli). Nature of the assay: Test A preemergence, barnyardgrass. The note with it: Echinochloa crus-galli, pre-emergence, 240 h, Preemergence; for pest or weed control at 125 g/ha: 125 g ai/ha, visual injury on 0 to 100 scale (0 no effect, 100 complete control), approximately 10 days, read-out: Barnyardgrass plant response rating; for pest or weed control at 500 g/ha: 500 g ai/ha, 0 to 100 scale (0 no effect, 100 complete control), read-out: Plant response rating, Barnyardgrass. Summed up: (§1)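 After sowing into a sand-amended loam, pots for the preemergence test were treated by spraying directly onto soil. In parallel, seedlings at the one- to two-leaf stage and 2 to 10 cm tall were treated postemergence with the identical surfactant-containing formulation.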

Another assay has as its system kochia (Bassia scoparia). Nature of the assay: Test A postemergence, kochia. The note with it: Bassia scoparia, post-emergence, 240 h, Postemergence, 0 to 100 scale (0 no effect, 100 complete control); for pest or weed control at 125 g/ha: 125 g ai/ha, visual injury approx. 10 days; for pest or weed control at 500 g/ha: 500 g ai/ha. The gist of the method: as §1
Assay [2] has as its system ragweed (common ragweed, Ambrosia artemisiifolia). Kind of assay: Test A postemergence, ragweed. Conditions: Ambrosia artemisiifolia, post-emergence, 240 h, Postemergence, 0 to 100 scale (0 no effect, 100 complete control); for pest or weed control at 125 g/ha: 125 g ai/ha, visual injury approx. 10 days; for pest or weed control at 500 g/ha: 500 g ai/ha. Summed up: as §1

For assay [3], the system named is Foxtail, Giant (giant foxtail, Setaria faberi). Kind of assay: Test A postemergence, Foxtail, Giant. Conditions: Setaria faberi, post-emergence, 240 h, Postemergence, 0 to 100 scale (0 no effect, 100 complete control); for pest or weed control at 125 g/ha: 125 g ai/ha, visual injury approx. 10 days; for pest or weed control at 500 g/ha: 500 g ai/ha. The gist of the method:
as §1

The mark [4] stands for this setting: read-out: Plant response rating, Kochia.
The mark [5] stands for this setting: visual injury, approx. 10 days, read-out: Plant response rating, Kochia.
Where [6] appears, read: read-out: Plant response rating, Ragweed.
[7] abbreviates: visual injury, approx. 10 days, read-out: Plant response rating, Ragweed.
Where [8] appears, read: read-out: Plant response rating, Foxtail, Giant.
[9] abbreviates: visual injury, approx. 10 days, read-out: Plant response rating, Foxtail, Giant.
The mark [10] stands for this setting: visual injury vs untreated controls after approx. 10 days, read-out: Kochia plant response rating.
Setting [11] is: visual injury vs untreated controls after approx. 10 days, read-out: Ragweed plant response rating.
[12] abbreviates: visual injury vs untreated controls after approx. 10 days, read-out: Foxtail, Giant plant response rating.

Where two headings read alike, the source gives them in different places.

In the case of `Cc1cc(Cl)c(NS(=O)(=O)C(F)(F)F)cc1C(=O)N1CCOCC1` [Compound 16, N-[2-Chloro-4-methyl-5-(4-morpholinylcarbonyl)phenyl]-1,1,1-trifluoromethanesulfonamide], the pest or weed control at 125 g/ha in assay [1] is 90%; with kochia (Bassia scoparia) (setting [4]) it was 40%; in assay [2] (setting [6]), 80%; in assay [3] (setting [8]), 40%. The pest or weed control at 500 g/ha stood at 100% in assay [1], 80% in the assay with kochia (Bassia scoparia) (setting [5]), 90% in assay [2] (setting [7]) and 90% in assay [3] (setting [9]).
Consider `Cc1cc(Cl)c(NS(=O)(=O)C(F)(F)F)cc1C(=O)N1CCCCC1` [Compound 18, N-[2-Chloro-4-methyl-5-(1-piperidinylcarbonyl)phenyl]-1,1,1-trifluoromethanesulfonamide], for which the pest or weed control at 125 g/ha in assay [1] came out at 100%; in the assay with kochia (Bassia scoparia) (setting [4]), 10%; in assay [2] (setting [6]), 0%; in assay [3] (setting [8]), 20%. The pest or weed control at 500 g/ha in assay [1] came to 100%; in the assay with kochia (Bassia scoparia) (setting [5]), 40%; in assay [2] (setting [7]) it was 80%; in assay [3] (setting [9]), 70%.
For `CCc1cc(-c2cc(NS(=O)(=O)C(F)(F)F)c(C)cc2C)c(=O)n(C)n1` [Compound 34, N-[5-(6-Ethyl-2,3-dihydro-2-methyl-3-oxo-4-pyridazinyl)-2,4-dimethylphenyl]-1,1,1-trifluoromethanesulfonamide], the pest or weed control at 125 g/ha was determined as 0% in assay [1], 30% in the assay with kochia (Bassia scoparia) (setting [4]), 0% in assay [2] (setting [6]) and 0% in assay [3] (setting [8]). For the same compound, the pest or weed control at 500 g/ha in assay [1] was found to be 0%; in the assay with kochia (Bassia scoparia) (setting [5]), 50%; in assay [2] (setting [7]), 0%; in assay [3] (setting [9]) it was 0%.
Take `Cc1cc(C)c(N(COC(=O)C(C)(C)C)S(=O)(=O)C(F)(F)F)cc1C1=NO[C@@H]2CCC[C@H]12` [Compound 100, [[2,4-Dimethyl-5-[(3aR,6aR)-3a,5,6,6a-tetrahydro-4H-cyclopent[d]isoxazol-3-yl]phenyl][(trifluoromethyl)sulfonyl]amino]methyl 2,2-dimethylpropanoate]: the pest or weed control at 125 g/ha is 70% in assay [1], 60% in the assay with kochia (Bassia scoparia) (setting [4]), 40% in assay [2] (setting [6]) and 10% in assay [3] (setting [8]). Further, the pest or weed control at 500 g/ha in assay [1] came to 90%; in the assay with kochia (Bassia scoparia) (setting [10]) it was 90%; in assay [2] (setting [11]), 80%; in assay [3] (setting [12]) it was 40%.
Regarding `Cc1cc(C)c(C2=NO[C@@H]3CCC[C@H]23)cc1NS(=O)(=O)C(F)(F)F` [Compound 103, N-[2,4-Dimethyl-5-[(3aR,6aR)-3a,5,6,6a-tetrahydro-4H-cyclopent[d]isoxazol-3-yl]phenyl]-1,1,1-trifluoromethanesulfonamide], the pest or weed control at 125 g/ha in assay [1] is 90%; in the assay with kochia (Bassia scoparia) (setting [4]), 70%; in assay [2] (setting [6]), 60%; in assay [3] (setting [8]) it was 30%. Besides, the pest or weed control at 500 g/ha in assay [1] amounted to 90%; with kochia (Bassia scoparia) (setting [10]), 80%; in assay [2] (setting [11]), 70%; in assay [3] (setting [12]), 70%.
On to `Cc1cc(C)c(C2=NOC3CCOCC23)cc1NS(=O)(=O)C(F)(F)F` (stereo not drawn) [Compound 120, N-[2,4-Dimethyl-5-(3a,6,7,7a-tetrahydro-4H-pyrano[3,4-d]isoxazol-3-yl)phenyl]-1,1,1-trifluoromethanesulfonamide], for which the pest or weed control at 125 g/ha in assay [1] was 90%; with kochia (Bassia scoparia) (setting [4]), 70%; in assay [2] (setting [6]) it was 80%; in assay [3] (setting [8]), 40%. Moreover, the pest or weed control at 500 g/ha in assay [1] came to 100%; in the assay with kochia (Bassia scoparia) (setting [10]), 90%; in assay [2] (setting [11]), 90%; in assay [3] (setting [12]), 90%.
